The values that follow come from PMC7893792 (ACS Omega, 2021).

The conditions of data set [1]: cited from earlier work.
Substrate in data set [2]: O=C(O)c1ccc(C(=O)O)c(-c2c3ccc(=O)cc-3oc3cc(O)ccc23)c1
In words: 6-CF uptake by rOat3-expressing HEK293 cells. It is filed as cell-based, rat. The conditions noted are these: other: HEK293-rOat3, 2 min, 37 °C, pH 7.4, 1-100 μM 6-CF.

carboxyfluorescein: the “Binding to serum protein” value in data set [1] is reported as about 90%.

B1: rOat3 (Rattus norvegicus) (protein)
chain: MTFSEILDRVGSMGPFQYLHVTLLALPVLGIANHNLLQIFTATTPVHHCRPPPNASIGPWVLPLDPNGKPEKCLRFVHLPNASLPNDTQRATEPCLDGWIYNSTRDTIVIEWDLVCSSNKLKEMAQSIFMAGILVGGPVIGELSDRFGRKPILTWSYLMLAASGSGAAFSPSLPVYMIFRFLCGCSISGISLSTVILNVEWVPTSMRAISSTSIGYCYTIGQFILSGLAYAIPQWRWLQLTSSAPFFIFSLLSWWVPESIRWLVLSGKYSKALKTLQRVATFNGKKEEGKKLTIEELKFNLQKDITSAKVKYGLSDLFRVSILRRVTFCLSLAWFSTGFAYYSLAMGVEEFGVNIYILQIIFGGVDIPAKFITILSLSYLGRRITQSFLLLLAGGAILALIFVPSEMQLLRTALAVFGKGCLSGSFSCLFLYTSELYPTVLRQTGMGISNVWARVGSMIAPLVKITGELQPFIPNVIFGTTALLGGSAAFFLLETLNRPLPETIEDIQNWHKQVQKTKQESEAEKASQIIPLKTGG
One may read the Km as the substrate concentration at which the rate is half of its maximum. Take B1: the Km in data set [2] came to 2.52 ± 0.48 µM.
